Test results from patent US6066642A, “Dihydropyridine-, pyridine-, benzopyran-4-one- and triazoloquinazoline derivative, their preparation and their use as adenosine receptor antagonists” (priority 1998, dated 2000).
Like-named read-outs stand apart in the source and are kept apart here. Values belong to the molecule of their own block, whether it stands above or below them.

What was measured:
A2a receptors = target: T1, A2a receptors (Rattus norvegicus, UniProt P30543); test: radioligand binding, displacement of specific [3H]CGS 21680 binding in rat striatal membranes; details: for Ki: [3H]CGS 21680, rat striatal membranes; for inhibition at 100 µM: 10^-4 M
T1 construct: Displacement of specific [^3 H]; from tissue; host or cells: rat striatal membranes
T1 sequence (P30543 whole entry): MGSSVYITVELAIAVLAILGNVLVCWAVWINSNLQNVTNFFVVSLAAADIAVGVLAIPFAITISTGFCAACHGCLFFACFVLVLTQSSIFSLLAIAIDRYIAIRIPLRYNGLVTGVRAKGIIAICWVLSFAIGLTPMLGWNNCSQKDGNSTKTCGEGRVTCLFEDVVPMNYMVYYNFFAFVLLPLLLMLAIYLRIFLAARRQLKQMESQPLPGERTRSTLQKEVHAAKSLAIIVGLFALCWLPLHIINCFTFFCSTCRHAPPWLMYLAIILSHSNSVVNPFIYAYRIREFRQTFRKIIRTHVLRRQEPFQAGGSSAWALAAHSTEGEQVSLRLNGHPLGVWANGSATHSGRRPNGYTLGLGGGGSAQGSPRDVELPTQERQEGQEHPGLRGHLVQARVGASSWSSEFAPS
Experimental: ^b Displacement of specific [^3 H]
or as a percentage of specific binding displaced at 100 μM.

A1 receptors = target: T2, A1 receptors (Rattus norvegicus, UniProt P25099); test: biochemical; format: binding; details: for inhibition at 100 µM: 10^-4 M; for Ki: rat brain membranes, read-out: Ki rA1; for greater affinity to A1 than A2a adenosine receptors: selectivity in words
T2 sequence (P25099 1-326): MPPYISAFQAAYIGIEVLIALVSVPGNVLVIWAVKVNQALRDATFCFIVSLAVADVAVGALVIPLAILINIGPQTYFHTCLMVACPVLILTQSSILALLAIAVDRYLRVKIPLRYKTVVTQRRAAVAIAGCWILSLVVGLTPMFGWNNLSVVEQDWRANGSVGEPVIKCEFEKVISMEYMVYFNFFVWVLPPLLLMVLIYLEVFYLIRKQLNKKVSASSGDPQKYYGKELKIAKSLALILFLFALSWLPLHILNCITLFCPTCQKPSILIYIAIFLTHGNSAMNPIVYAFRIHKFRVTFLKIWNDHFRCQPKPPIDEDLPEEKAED
Experimental: ^a Displacement of specific [^3 H] PIA binding in rat brain
percentage of specific binding displaced at 100 μM.

[1] = Table 12, read-out: displacement of specific binding rA2A
[2] = Table 12, read-out: % inhibition rA1
[3] = Table 12, read-out: % inhibition rA2A
[4] = Table 12, read-out: displacement of specific binding rA1
[5] = Table 11, read-out: % inhibition rA2A
[6] = Table 11, read-out: displacement of specific binding rA2A

Ki (A2a receptors; Table 9, read-out: Ki rA2A): 35.6 µM | inhibition at 100 µM (A1 receptors; Table 9, read-out: % of specific binding displaced rA1): 37 ± 14%
SMILES: CCOC(=O)C1=C(C)NC(C)=C(C(=O)OC)C1c1ccc([N+](=O)[O-])cc1 (racemic) [Compound 67, 3-methyl-5-ethyl-2,6-dimethyl-4-(4-nitrophenyl)-1,4(R,S)-dihydropyridine-3,5-dicarboxylate]

SMILES: CCOC(=O)C1=C(C)NC(c2ccccc2)=C(C(=O)OCC)C1C#Cc1cccc(C)c1 (racemic) [Compound 120, 3,5-Diethyl 2-methyl-4-(3-methylphenylethynyl)-6-phenyl-1,4-(±)-dihydropyridine-3,5-dicarboxylate]
inhibition at 100 µM (A2a receptors; [1]): < 10% | inhibition at 100 µM (A1 receptors; [2]): 41%

SMILES: CCOC(=O)C1=C(C)NC(c2ccccc2)=C(C(=O)OCc2ccccc2C)C1C#Cc1ccccc1 (racemic) [Compound 122a]
inhibition at 100 µM (A2a receptors; [3]): 13% | inhibition at 100 µM (A1 receptors; [2]): 16 ± 1%

SMILES: CCOC(=O)C1=C(C)NC(c2ccccc2)=C(C(=O)OCc2cccc(C)c2)C1C#Cc1ccccc1 (racemic) [Compound 122b, 3-Ethyl 5-(3-methylbenzyl)-4-phenylethynyl-6-phenyl-1,4(±)-dihydropyridine-3.5-dicarboxylate]
inhibition at 100 µM (A2a receptors; [3]): 16 ± 2% | inhibition at 100 µM (A1 receptors; [4]): < 10%

SMILES: CCOC(=O)C1=C(C)NC(c2ccccc2)=C(C(=O)OCc2ccc(C)cc2)C1C#Cc1ccccc1 (racemic) [Compound 122c]
inhibition at 100 µM (A2a receptors; [3]): 17 ± 3% | inhibition at 100 µM (A1 receptors; [4]): < 10%

SMILES: CCOC(=O)C1=C(C)NC(c2ccccc2)=C(C(=O)OCc2ccc(C(F)(F)F)cc2)C1C#Cc1ccccc1 (racemic) [Compound 122d]
inhibition at 100 µM (A2a receptors; [3]): 15% | inhibition at 100 µM (A1 receptors; [2]): 32 ± 3%

SMILES: CCOC(=O)C1=C(C)NC(c2ccccc2)=C(C(=O)OCc2cccc([N+](=O)[O-])c2)C1C#Cc1ccccc1 (racemic) [Compound 122f, 3-Ethyl 5-(3-nitrobenzyl)-4-phenylethynyl-6-phenyl-1,4(±)-dihydropyridine-3,5-dicarboxylate]
inhibition at 100 µM (A2a receptors; [1]): < 10% | inhibition at 100 µM (A1 receptors; [2]): 28 ± 2%

inhibition at 100 µM (A1 receptors; [2]): 29 ± 2%
SMILES: CCOC(=O)C1=C(C)NC(c2ccccc2)=C(C(=O)OCc2ccc([N+](=O)[O-])cc2)C1C#Cc1ccccc1 (racemic) [Compound 122g]

SMILES: CCCOC(=O)C1=C(C)NC(c2ccccc2)=C(C(=O)OCc2ccccc2)C1C#Cc1ccccc1 (racemic) [Compound 124, 3-Propyl 5-benzyl 2-methyl-4-phenylethynyl-6-phenyl-1,4-(±)-dihydropyridine-3,5-dicarboxylate]
inhibition at 100 µM (A2a receptors; [3]): 16% | inhibition at 100 µM (A1 receptors; [2]): 27 ± 7%

SMILES: CCOC(=O)C1=C(C)NC(c2ccccc2)=C(C(=O)OCCc2ccccc2)C1C#Cc1ccccc1 (racemic) [Compound 125, 3-Ethyl 5-phenylethyl 2-methyl-4-phenylethynyl-6-phenyl-1,4-(±)-dihydropyridine-3.5-dicarboxylate]
inhibition at 100 µM (A2a receptors; [1]): < 10% | inhibition at 100 µM (A1 receptors; [4]): < 10%

SMILES: CCOC(=O)C1=C(C)NC(c2ccccc2)=C(C(=O)OCCCc2ccccc2)C1C#Cc1ccccc1 (racemic) [Compound 126, 3-Ethyl 5-phenylpropyl 2-methyl-4-phenylethynyl-6-phenyl-1,4-(±)-dihydropyridine-3,5-dicarboxylate]
inhibition at 100 µM (A2a receptors; [1]): < 10% | inhibition at 100 µM (A1 receptors; [4]): < 10%

SMILES: CCOC(=O)C1=C(C)NC(c2ccccc2)=C(C(=O)OC(C)(C)C)C1C#Cc1ccccc1 (racemic) [Compound 127, 3-Ethyl 5-t-butyl 2-methyl-4-phenylethynyl-6-phenyl-1,4-(±)-dihydropyridine-3.5-dicarboxylate]
inhibition at 100 µM (A2a receptors; [3]): 27 ± 5% | Ki (A1 receptors; Table 12, [3H]R-PIA): 25.3 µM

SMILES: CCOC(=O)C1=C(C)N(COC)C(c2ccccc2)=C(C(=O)OCC[Si](C)(C)C)C1C#Cc1ccccc1 (racemic) [Compound 137, 1-Methoxymethyl 3-ethyl 5-(2-trimethylsilyl)-ethyl 2-methyl-4-phenylethynyl-6-phenyl-1,4-(±)-dihydropyridine-3,5-dicarboxylate]
inhibition at 100 µM (A2a receptors; [3]): 27 ± 4% | inhibition at 100 µM (A1 receptors; [4]): < 10%

SMILES: O=C1CC(c2ccccc2)Oc2ccccc21 (stereo not shown) [Compound 12, flavanone, reference compound]
Ki (A1 receptors; Table 4, [3H]PIA): 32 ± 4.8 µM

SMILES: COC(=O)C1=C(C)NC(C)=C([N+](=O)[O-])C1c1ccccc1C(F)(F)F (stereo not shown) [Compound 69, reference compound]
greater affinity to A1 than A2a adenosine receptors (A1 receptors): greater affinity to A1 adenosine receptors than A2a receptors

SMILES: COC(=O)C1=C(C)NC(C)=C([N+](=O)[O-])C1c1ccccc1C(F)(F)F (stereo not shown) [Compound 70, reference compound]
greater affinity to A1 than A2a adenosine receptors (A1 receptors): greater affinity to A1 adenosine receptors than A2a receptors

SMILES: CCOC(=O)c1c(C)nc(-c2ccccc2)c(C(=O)OCC)c1C [Compound 81]
Ki (A2a receptors; Table 10, read-out: Ki rA2a): 28.4 µM

SMILES: CCOC(=O)C1=C(C)NC(C)=C(C(=O)OCC)C1/C=C/c1ccccc1 [Compound 84]
Ki (A2a receptors; Table 11, read-out: Ki rA2A): 9.23 ± 3.6 µM

inhibition at 100 µM (A2a receptors; [5]): 14.4 ± 4%
SMILES: CCOC(=O)C1=C(C)NC(C)=C(C(=O)OCc2ccccc2)C1/C=C/c1ccccc1 (stereo not shown) [Compound 85]

SMILES: CCOC(=O)C1=C(C)NC(c2ccccc2)=C(C(=O)OCC)C1CC (stereo not shown) [Compound 86]
Ki (A2a receptors; Table 11, read-out: Ki rA2A): 14.5 µM

SMILES: CCOC(=O)C1=C(C)NC(c2ccccc2)=C(C(=O)OCc2ccccc2)C1C (stereo not shown) [Compound 87]
Ki (A2a receptors; Table 11, read-out: Ki rA2A): 3.15 µM

SMILES: CCOC(=O)C1=C(C)NC(c2ccc(C)cc2)=C(C(=O)OCC)C1/C=C/c1ccccc1 (stereo not shown) [Compound 88]
inhibition at 100 µM (A2a receptors; [5]): 37%

SMILES: CCOC(=O)C1=C(C)NC(c2ccc(OC)cc2)=C(C(=O)OCC)C1/C=C/c1ccccc1 (stereo not shown) [Compound 89]
inhibition at 100 µM (A2a receptors; [6]): < 10%

SMILES: CCOC(=O)C1=C(C)NC(c2ccc(Cl)cc2)=C(C(=O)OCC)C1/C=C/c1ccccc1 (stereo not shown) [Compound 90]
inhibition at 100 µM (A2a receptors; [5]): 12 ± 7%

SMILES: CCOC(=O)C1=C(C)NC(c2ccoc2)=C(C(=O)OCC)C1/C=C/c1ccccc1 (stereo not shown) [Compound 92]
inhibition at 100 µM (A2a receptors; [5]): 35 ± 6%

SMILES: CCOC(=O)C1=C(C)NC(c2ccsc2)=C(C(=O)OCC)C1/C=C/c1ccccc1 (stereo not shown) [Compound 93]
inhibition at 100 µM (A2a receptors; [6]): < 10%

SMILES: CCOC(=O)C1=C(C)NC(c2ccccc2)=C(C(=O)OCC)C1/C=C/c1ccccc1OC (stereo not shown) [Compound 94]
inhibition at 100 µM (A2a receptors; [5]): 17 ± 12%

SMILES: CCOC(=O)C1=C(C)NC(c2ccccc2)=C(C(=O)OCC)C1/C=C/c1ccccc1[N+](=O)[O-] (stereo not shown) [Compound 95]
inhibition at 100 µM (A2a receptors; [6]): < 10%

SMILES: CCOC(=O)C1=C(C)NC(c2ccccc2)=C(C(=O)OCC)C1C=C(c1ccccc1)c1ccccc1 (stereo not shown) [Compound 97]
Ki (A2a receptors; Table 11, read-out: Ki rA2A): 8 µM

SMILES: CCOC(=O)C1=C(C)NC(c2ccccc2)=C(C(=O)OCC)C1C#Cc1ccccc1 (stereo not shown) [Compound 109]
inhibition at 100 µM (A2a receptors; [3]): 25 ± 3%

SMILES: CCOC(=O)C1=C(C)NC(c2ccccc2)=C(C(=O)OCC)C1c1ccco1 (stereo not shown) [Compound 115]
inhibition at 100 µM (A2a receptors; [1]): < 10%

SMILES: CCOC(=O)C1=C(C)NC(c2ccccc2)=C(C(=O)OCc2ccccc2)C1C#Cc1ccccc1 (stereo not shown) [Compound 121]
inhibition at 100 µM (A1 receptors; [2]): 25 ± 4%

SMILES: CCOC(=O)C1=C(c2ccccc2)NC(C)=C(C(=O)SCC)C1C#Cc1ccccc1 (stereo not shown) [Compound 130b]
Ki (A2a receptors; Table 12, read-out: Ki rA2A): 5.15 ± 1.83 µM

inhibition at 100 µM (A2a receptors; [3]): 35%
SMILES: CCNC(=O)C1=C(c2ccccc2)N(COCC)C(C)=C(C(=O)OCC)C1C#Cc1ccccc1 (stereo not shown) [Compound 140]

Ki (A1 receptors; Table 15, [3H]PIA): 2 µM
SMILES: CCCn1c(=O)n2nc(-c3ccco3)nc2c2cc(Cl)ccc21 [Compound 159, 9-Chloro-2-(2-furyl)[1,2,4]triazolo[1,5-c]quinazolin-6-propyl-5-one]

SMILES: CCOC(=O)C1=C(c2ccccc2)NC(C)=C(C(=O)OCC(O)CO)C1C#Cc1ccccc1 (stereo not shown) [Compound 212a]
inhibition at 100 µM (A2a receptors; Table 14, read-out: displacement of specific binding rA2A): < 10%

SMILES: CCOC(=O)C1=C(c2ccccc2)NC(C)=C(C(=O)OCC(O)CO)C1C#Cc1ccccc1 (stereo not shown) [Compound 213a]
inhibition at 100 µM (A2a receptors; Table 14, read-out: % inhibition rA2A): 39 ± 8%
